Measurements: article PMC11592631, “Novel PP2A-Activating Compounds in Neuroblastoma” (Cancers, 2024)

Key:
[1] = system: WAC2 cells; test: Monolayer wound healing (scratch) assay; type: cell-based, human; conditions: WAC2, 12 μM; vs untreated cells, p ≤ 0.001
Method: (§1) Migration was investigated using a monolayer wound healing (scratch) assay. Established NB cells (5 × 10^4) were plated in 12-well plates. […] Photographs of the plates were obtained at 0, 12, 24, and 36 h. The ImageJ MRI Wound Healing Tool (https://imagej.net, accessed on 26 November 2021) quantified the open wound area as previously described. In PDX cells, migration was assessed using modified Boyden chamber assays. Micropore inserts with […] (Corning) were utilized in 24-well plates. The insert bottoms were coated with human laminin (10 µg/mL, 150 μL, EMD Millipore). COA6 PDX cells were treated for 24 h with ATUX-3364 or ATUX-8385 (6 μM), plated (4 × 10^4 cells), allowed to migrate through the membrane for 72 h, and the insert membranes were fixed using 4% paraformaldehyde and stained with 1% crystal violet for 15 min. Inserts were photographed, and migration was quantified with ImageJ (https://imagej.net, accessed on 26 November 2021). Scratch assays were reported as the fold change area remaining open at 36 h, and modified Boyden chamber assays were reported as the mean number of migrated cells ± SEM. Experiments were completed with at least three biological replicates.

[2] = system: SK-N-AS cells; test: Monolayer wound healing (scratch) assay; type: cell-based, human; conditions: 4 μM
Method: as §1

[3] = system: SH-EP cells; test: Monolayer wound healing (scratch) assay; type: cell-based, human; conditions: 12 μM, vs untreated cells, p ≤ 0.001
Method: as §1

[4] = system: SK-N-BE(2) cells; test: Monolayer wound healing (scratch) assay; type: cell-based, human; conditions: 4 μM, vs untreated cells, p ≤ 0.001
Method: as §1

[5] = system: CIP2A; test: Immunoblotting for the endogenous PP2A inhibitor CIP2A; type: cell-based, human; conditions: immunoblot
Method: (§2) Post-treatment, cell lysis was completed in radioimmunoprecipitation (RIPA) buffer. Phosphatase inhibitors (P5726, Sigma), protease inhibitors (P8340, Sigma), and phenylmethanesulfonylfluoride (PMSF, P7626, Sigma) were added to make a complete RIPA buffer. Lysis was performed for 60 min at 4 °C followed by centrifugation at 17,000 rpm for 30 min (4 °C). The protein concentration was determined using the Pierce BCA Protein Assay (Thermo Fisher Scientific), and protein separation was completed on sodium dodecyl sulfate polyacrylamide (SDS-PAGE) gel-based electrophoresis. Targeted protein size was determined using molecular weight markers (Precision Plus Protein Kaleidoscope, Bio-Rad, Hercules, CA, USA). […] Immunoblots were developed with Luminata Classico or Crescendo Western horseradish peroxidase substrate (EMD Millipore, Burlington, MA, USA) on X-ray film. Anti-beta-actin, anti-vinculin, or anti-GAPDH served as internal loading controls.

[6] = system: WAC2 cells; test: Proliferation, CellTiter 96 assay; type: cell-based, human; conditions: WAC2, increasing doses, 24 h
Method: (§3) Cell viability was determined by alamarBlue assay (Thermo Fisher Scientific) and proliferation was detected with CellTiter 96 Proliferation assay (Promega, Madison, WI, USA). NB cell lines (15,000 cells for viability or 5000 for proliferation) or COA6 PDX cells (30,000 for viability or 10,000 for proliferation) were seeded in 96-well cell culture plates followed by treatment with increasing doses of ATUX-3364 or ATUX-8385 for 24 h. Doses were as follows: established cell lines, 0–20 µM; PDX COA6 cells, 0–25 µM. Respective dyes (10 µL) were added, and absorbance measurement was completed with a microplate reader (Epoch Microplate Spectrophotometer, BioTek Instruments, Winooski, VT, USA). A wavelength of 570 nm was used for alamarBlue and 490 nm for CellTiter 96 with 600 nm serving as the reference for both. A minimum of three biological replicates for each experiment were completed, and data were reported as fold change ± SEM.

[7] = system: SK-N-AS cells; test: Proliferation, CellTiter 96 assay; type: cell-based, human; conditions: increasing doses, 24 h
Method: as §3

[8] = system: SH-EP cells; test: Proliferation, CellTiter 96 assay; type: cell-based, human; conditions: increasing doses, 24 h
Method: as §3

[9] = system: COA6 PDX cells; test: Proliferation, CellTiter 96 assay; type: cell-based, human; conditions: increasing doses, 24 h
Method: as §3

[10] = system: SK-N-BE(2) cells; test: Proliferation, CellTiter 96 assay; type: cell-based, human; conditions: increasing doses, 24 h
Method: as §3

[11] = system: SK-N-AS tumors; test: In vivo tumor growth, flank xenograft; design: species or system athymic nude mice; conditions: 50 mg/kg oral twice daily, 14 days
Method: (§4) SK-N-AS or SK-N-BE(2) (1.5 × 10^6) cells in 25% Matrigel (BD Biosciences) were injected into the right flank of 6-week-old female athymic nude mice (Fredricks) (n = 7 for SK-N-AS vehicle treated, n = 6 for SK-N-AS experimental groups, n = 5 for SK-N-BE(2) vehicle treated, n = 6 for SK-N-BE(2) ATUX-3364, and n = 7 ATUX-8385 treatment groups). Tumors were measured thrice per week with calipers, and tumor volumes were calculated by the formula (width^2 × length)/2, where the width was the smaller measurement. When tumors reached a volume of 60–100 mm^3, animals were randomized to three groups to receive 100 µL twice daily by oral gavage of vehicle [N,N-dimethylacetamide (DMA, 271012, Sigma Aldrich) and Kolliphor HS 15 (Solutol, 42996, Sigma Aldrich)], ATUX-3364 (50 mg/kg in DMA and Solutol), or ATUX-8385 (50 mg/kg in DMA and Solutol); dosing was based on previously published data using in vivo cancer models. Animals were weighed daily and were humanely euthanized in their home cages with CO2 and cervical dislocation 14 (SK-N-AS) or 21 (SK-N-BE(2)) days after treatment initiation, when the tumor volume reached 2000 mm^3, or when animals met IACUC parameters. Because COA6 cells grow tumors unpredictably and erratically in mice, these PDX cells were not utilized for in vivo studies, but all COA6 tumors were propagated in mice.

[12] = system: SK-N-BE(2) tumors; test: In vivo tumor growth, flank xenograft; design: species or system athymic nude mice; conditions: 50 mg/kg oral twice daily, 21 days
Method: as §4

[13] = system: SET; test: Immunoblotting for the endogenous PP2A inhibitor SET; type: cell-based, human; conditions: immunoblot
Method: as §2

[14] = system: WAC2 cells; test: Cell viability, alamarBlue assay; type: cell-based, human; conditions: WAC2, 0, 5, 7.5, 20 μM, 24 h
Method: as §3

[15] = system: SK-N-AS cells; test: Cell viability, alamarBlue assay; type: cell-based, human; conditions: SK-N-AS, 0, 5, 7.5, 20 μM, 24 h
Method: as §3

[16] = system: SH-EP cells; test: Cell viability, alamarBlue assay; type: cell-based, human; conditions: SH-EP, 0, 5, 7.5, 20 μM, 24 h
Method: as §3

[17] = system: COA6 PDX cells; test: Cell viability, alamarBlue assay; type: cell-based, human; conditions: COA6 PDX cells, 0, 5, 10, 20 μM, 24 h
Method: as §3

[18] = system: SK-N-BE(2) cells; test: Cell viability, alamarBlue assay; type: cell-based, human; conditions: SK-N-BE(2), 0, 5, 7.5, 20 μM, 24 h
Method: as §3

[19] = In vitro microsome (oxidative) stability / in vitro metabolism; type: in vitro ADME
[20] = system: COA6 PDX cells; test: Modified Boyden chamber migration assay; type: cell-based, human; conditions: COA6, 6 μM, treated 24 h, 72 h migration; p ≤ 0.001
Method: as §1

[21] = system: PARP; test: Immunoblotting for cleaved and total PARP (apoptosis); type: cell-based, human; conditions: immunoblot
Method: as §2

[22] = system: MYCN; test: Immunoblotting for phosphorylated MYCN (S62) and total MYCN; type: cell-based, human; conditions: increasing concentrations, immunoblot
Method: as §2

[23] = target: T1, PP2A (Homo sapiens, UniProt P30153+P67775+Q15172); test: PP2A Immunoprecipitation Phosphatase Assay on lysates of treated NB cells; type: cell-based; conditions: 24 h, control 100%, mean ± SEM
T1 construct: endogenous in cells; host or cells: SK-N-AS, SK-N-BE(2), SH-EP, WAC2 human neuroblastoma cells
T1 sequence (P30153 2-589 limits assumed): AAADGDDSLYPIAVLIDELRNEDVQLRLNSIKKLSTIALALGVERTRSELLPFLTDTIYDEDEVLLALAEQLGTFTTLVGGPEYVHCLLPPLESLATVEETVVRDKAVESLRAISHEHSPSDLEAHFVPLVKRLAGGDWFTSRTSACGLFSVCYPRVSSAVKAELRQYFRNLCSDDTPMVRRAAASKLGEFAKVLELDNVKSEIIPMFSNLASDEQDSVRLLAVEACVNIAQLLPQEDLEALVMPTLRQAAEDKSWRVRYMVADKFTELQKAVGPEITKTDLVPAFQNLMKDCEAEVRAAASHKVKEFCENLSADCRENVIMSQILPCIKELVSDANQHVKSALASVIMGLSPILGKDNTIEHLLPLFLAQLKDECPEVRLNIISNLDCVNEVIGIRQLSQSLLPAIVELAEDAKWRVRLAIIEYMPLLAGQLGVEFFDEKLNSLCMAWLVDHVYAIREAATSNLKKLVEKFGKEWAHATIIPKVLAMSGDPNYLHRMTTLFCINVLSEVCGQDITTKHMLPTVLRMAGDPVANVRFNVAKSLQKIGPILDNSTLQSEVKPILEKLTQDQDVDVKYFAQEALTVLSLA
T1 sequence (P67775 whole entry): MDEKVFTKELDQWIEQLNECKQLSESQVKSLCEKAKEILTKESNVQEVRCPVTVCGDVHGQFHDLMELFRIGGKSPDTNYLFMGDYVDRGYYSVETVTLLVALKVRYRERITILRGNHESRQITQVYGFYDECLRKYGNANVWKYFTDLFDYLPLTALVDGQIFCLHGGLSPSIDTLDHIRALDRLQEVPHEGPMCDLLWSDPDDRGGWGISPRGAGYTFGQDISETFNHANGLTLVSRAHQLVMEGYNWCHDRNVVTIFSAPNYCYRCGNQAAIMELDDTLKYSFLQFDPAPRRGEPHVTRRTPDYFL
T1 sequence (Q15172 whole entry): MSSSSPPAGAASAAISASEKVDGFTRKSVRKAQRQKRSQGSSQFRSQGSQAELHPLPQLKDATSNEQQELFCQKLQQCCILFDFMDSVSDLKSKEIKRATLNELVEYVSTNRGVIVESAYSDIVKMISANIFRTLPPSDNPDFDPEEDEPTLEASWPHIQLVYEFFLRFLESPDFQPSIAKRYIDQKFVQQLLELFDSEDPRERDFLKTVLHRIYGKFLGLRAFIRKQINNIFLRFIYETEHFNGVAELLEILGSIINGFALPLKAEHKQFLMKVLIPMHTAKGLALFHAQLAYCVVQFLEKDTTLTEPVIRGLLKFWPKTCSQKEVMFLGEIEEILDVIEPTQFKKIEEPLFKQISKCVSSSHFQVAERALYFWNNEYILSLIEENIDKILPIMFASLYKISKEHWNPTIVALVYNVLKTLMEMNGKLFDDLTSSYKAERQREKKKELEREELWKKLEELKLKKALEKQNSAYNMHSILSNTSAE
Method: SK-N-AS, SK-N-BE(2), SH-EP, or WAC2 cells (1 × 10^6) were treated with ATUX-3364 or ATUX-8385 (SK-N-AS and SK-N-BE(2) 4 µM; SH-EP and WAC2 12 µM) for 24 h and lysed using HEPES ((4-(2-hydroxyethyl)-1-piperazineethanesulfonic acid, 10 mM) (AC215001000, Thermo Fisher Scientific), MgCl2 (1.5 mM) (MX0045-4, EM Science, Gibbstown, NJ, USA), KCl (10 mM) (02-003-741, Thermo Fisher Scientific), phenylmethylsulfonyl fluoride (0.5 mM) (PMSF, Sigma Aldrich), dithiothreitol (0.5 mM) (EC-601, National Diagnostics, Atlanta, GA, USA), and Igepal CA-630 (0.2%) (I7771, Sigma Aldrich) on ice for 20 min. Cell lysates were centrifuged at 17 000 rpm for 30 min at 4 °C. A PP2A Immunoprecipitation Phosphatase Assay Kit (17–313, EMD Millipore) was utilized per the manufacturer’s protocol to evaluate the activity of PP2A. Experiments were completed with at least three biological replicates, and data were reported as mean fold change ± standard error of the mean (SEM).

[24] = Pharmacokinetic studies of ATUX-8385 in mice (IV and PO), plasma by LC-MS/MS; type: in vivo
Method: Pharmacokinetic (PK) studies of ATUX-8385 were conducted by Eurofins. Briefly, ATUX-8385 was administered at 1 mg/kg intravenously (IV) or 30 mg/kg oral (PO) to male mice, as is the experimental choice of the Contract Research Organization. At euthanasia, samples were collected and stored at −70 °C until processing. The plasma samples were collected at 0.05, 0.167, 0.5, 1, 2, 4, 8, and 24 h(s) after IV treatment, and at 0.167, 0.5, 1, 2, 4, 6, 8, and 24 h(s) after PO treatment. The plasma samples were processed using acetonitrile precipitation and analyzed by liquid chromatography–tandem mass spectrometry (LC-MS/MS).

[25] = design: method as in PMID 35454859; conditions: in vivo; cited from earlier work
[26] = design: method as in PMID 35454859; conditions: cited from earlier work

For `O=S(=O)(N[C@@H]1CNC[C@H](n2c3ccc(F)cc3c3cc(F)ccc32)[C@H]1O)c1ccc(OC(F)(F)F)cc1` [ATUX-8385], the “motility (wound healing, area remaining open at 36 h)” value [1] was “significant decrease in motility”, the “motility (wound healing, area remaining open at 36 h)” value [2] was “affected in a statistically significant manner” and the “motility (wound healing, area remaining open at 36 h)” value [3] was “significant decrease in motility”. The “motility (wound healing, area remaining open at 36 h)” value [4] was “significant decrease in motility”, the CIP2A expression ([5]; SH-EP cells) was “decreased” and the CIP2A expression ([5]; SK-N-AS cells) was “decreased”. For the same compound, the CIP2A expression ([5]; SK-N-BE(2) cells) was “decreased”, the CIP2A expression ([5]; WAC2 cells) was “decreased” and the proliferation [6] was “significant decrease”. For the same compound, the proliferation [7] was “significant decrease”, the proliferation [8] was “significant decrease” and the proliferation [9] was “significant decrease”. For the same compound, the proliferation [10] was “significant decrease”, the relative tumor growth [11] was “no decrease” and the tumor volumes [11] was “no decrease”. The relative tumor growth [12] was “significant decrease”, the tumor volumes [12] was “significant decrease” and the SET expression ([13]; COA6 PDX cells) was “variably affected”. The SET expression ([13]; SH-EP cells) was “did not alter SET expression”, the SET expression ([13]; SK-N-AS cells) was “unchanged” and the SET expression ([13]; SK-N-BE(2) cells) was “increased”. For the same compound, the SET expression ([13]; WAC2 cells) was “decreased”, the viability [14] was “significantly decreased viability” and the viability [15] was “significantly decreased viability”. For the same compound, the viability [16] was “significantly decreased viability”, the viability [17] was “significantly decreased” and the viability [18] was “significantly decreased viability”. For the same compound, the “microsome stability relative to DBK-1154” value ([19]; <115.5 vs 234 µL/min/mg) was “more stable by a factor of two”, the “Clearance (in vitro microsome (oxidative) stability)” value ([19]; Test Concentration 1 x 10^-7 M) was under 115.5 µL/min/mg and the “cell migration (number of migrated cells)” value [20] was “significantly decreased”. For the same compound, the “cleaved PARP” value ([21]; SK-N-AS whole cell lysates) was “increase”, the “total PARP” value ([21]; SK-N-AS whole cell lysates) was “decrease” and the “cleaved PARP” value ([21]; SK-N-BE(2) whole cell lysates) was “increase”. For the same compound, the “total PARP” value ([21]; SK-N-BE(2) whole cell lysates) was “decrease”, the “phosphorylated MYCN (S62)” value ([22]; SK-N-AS cells) was “decreased” and the “total MYCN protein expression” value ([22]; SK-N-AS cells) was “decreased”. The “phosphorylated MYCN (S62)” value ([22]; SK-N-BE(2) cells) was “decreased”, the “total MYCN protein expression” value ([22]; SK-N-BE(2) cells) was “decreased” and the “PP2A activation (percent of control)” value ([23]; SH-EP cells, 12 μM) was 126.6 ± 6.4%. The “PP2A activation (percent of control)” value ([23]; SK-N-AS cells, 4 μM) was 134.1 ± 5.5%, the “PP2A activation (percent of control)” value ([23]; SK-N-BE(2) cells, 4 μM) was 167.2 ± 13.7% and the “PP2A activation (percent of control)” value ([23]; WAC2 cells, 12 μM) was 118.2 ± 9.2%. For the same compound, the “in vivo IV clearance stability relative to DBK-1154” value ([24]; 12.3 vs 32.5 mL/min/kg) was “more stable by a factor of nearly three times” and the Plasma levels ([24]; for approximately 8 h after a bolus oral dose at 30 mg/kg) was 1 to 2 µM.

For `O=S(=O)(NC1CCCC(N2c3ccccc3CCc3ccccc32)C1O)c1ccc(OC(F)(F)F)cc1` (stereo not shown) [DBK-1154], the “clearance IV” value [25] is given as 32.5 mL/min/kg and the “in vitro microsome (oxidative) stability (clearance)” value [26] is given as 234 µL/min/mg.
